Reference: patent US20260258035A1, “FIVE-MEMBERED AND SIX-MEMBERED NITROGEN-CONTAINING COMPOUND, AND INTERMEDIATE, PREPARATION METHOD AND USE THEREOF” (HANGZHOU SYNRX THERAPEUTICS BIOMEDICAL TECHNOLOGY CO., LTD., priority 2022, published 2026)

How the values were obtained:
PARG = PARG (Homo sapiens, UniProt Q86W56); test: Biochemical assay (PARG, TFMU-ADPr substrate); details: PARG, TFMU-ADPr substrate
HCC1806 = test: Cell viability assay (CellTiter-Glo); assay type: cell-based, Human; details: Homo sapiens, HCC1806, 168 h, HCC1806, 7 days, CellTiter-Glo; read-out: IC50 (nM) in cell viability assay
PXR = target: T1, PXR (Homo sapiens, UniProt O75469); test: PXR assay (DPX2 luciferase reporter cells); assay type: cell-based; details: 24 h; for PXR Activation @30 uM (% Ctrl): positive control rifampicin
T1 construct: host or cells: DPX2 (HepG2)
T1 sequence (O75469 1-434): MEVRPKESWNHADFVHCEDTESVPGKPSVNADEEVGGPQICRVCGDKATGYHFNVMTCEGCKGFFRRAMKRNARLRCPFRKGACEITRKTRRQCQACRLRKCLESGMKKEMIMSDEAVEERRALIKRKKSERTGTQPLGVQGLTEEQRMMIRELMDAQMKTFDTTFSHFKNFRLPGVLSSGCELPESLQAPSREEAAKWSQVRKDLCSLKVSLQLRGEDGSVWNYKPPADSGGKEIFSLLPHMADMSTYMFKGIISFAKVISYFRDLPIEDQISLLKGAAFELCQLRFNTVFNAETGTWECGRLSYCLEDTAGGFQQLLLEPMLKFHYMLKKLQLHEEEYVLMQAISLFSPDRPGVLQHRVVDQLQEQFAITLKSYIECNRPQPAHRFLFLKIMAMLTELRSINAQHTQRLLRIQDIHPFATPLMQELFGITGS
Experimental: 1) Information of Cell Line
DPX2 (HepG2 cells stably transfected with PXR and luciferase reporter) cells were purchased from Puracyp Inc (Carlsbad, CA).
2) Experimental Procedures a) Reagents and Consumables
The DPX2 cells were cultured in the growth medium containing 1000 fetal bovine serum. The DPX2 cells in a T-75 flask were cultured in the […] incubator at 37° C. with 950% relative humidity, and digested when the cells grew to cover 80-90% of the bottom of the flask.
The surface layer of the T-75 cultured cells was washed with 10 mL of PBS; PBS was pipetted; 3-5 mL of tryp sin was added; the cells were digested at 37° C. for 5 minutes or until the cells were digested to be suspended; and excessive medium containing fetal bovine serum was added to stop trypsinization. The cell suspension was transferred to a conical-bottomed centrifuge tube and centrifuged at 150 g rpm for 5 minutes at room temperature; the supernatant was carefully pipetted; and the cells were resuspended with the treatment medium, with the concentration adjusted to 3.2×10^5 cells/mL (incubation time: 24 hours, plate seeding density: […]). 25 μL of the cell suspension was added to each well of the 384-well cell culture plate.
The cell culture plate was placed and cultured for 24 h in the […] incubator with 9500 humidity at 37° C. c) Formulation of Compound
The stock solution of each of 1000× test compound, the positive control (rifampicin), and the negative control (propranolol) was prepared with DMSO. The final concentrations of the positive control (rifampicin) were 1 μM and 10 μM, and the final concentration of the negative control (propranolol) was 10 μM. The final concentrations of the test compound were 10 μM, 1 μM, 0.1 μM, or EC50 (30 μM, 10 μM, 3 μM, 1 μM, 0.3 μM, 0.1 μM). The final concentration of DMSO was 0.10. The cell culture plate was taken out from the incubator, and 25 nL of the stock solution of the positive control, negative control or test compound was directly added with Echo, each with three parallel concentrations. The cell culture plate was placed in the incubator and continued to be incubated for 24 h. Before starting the assay with the substrate, the cell morphology and the monolayer integrity were checked to ensure that the monolayer was of acceptable research quality. […]
d) Quantitative Detection with PXR Activation
After 24 hours of dosing, the culture could be quantitatively detected with PXR activation. The CellTiter-Fluor™ Cell Viability Assay Kit and One-Glo Luciferase reagent were equilibrated to room temperature. The GF-AFC substrate (10 μL) was added to the assay buffer (10 ml) to develop a 2× reagent, which was then diluted into a 1× reagent with 10 ml of PBS. The ONE-Glo Luciferase substrate was added to the ONE-Glo Luciferase assay buffer. The culture plate was taken out from the incubator; the medium was discarded; 1× of CellTiter-Fluor™ reagent was poured into the loading slot; 25 μL of reagent were added per well to the culture plate with a pipetting workstation; and the culture plate was then incubated in the incubator for 30 minutes. The cell culture plate was taken out from the incubator, and cooled slightly to room temperature; and the fluorescence value was determined with a fully automatic quantitative microplate reader, with the excitation light of 400 nm and the emission light of 505 nm. The ONE-Glo reagent was poured into the loading slot, with 25 μL per well, and the resulting mixture was gently mixed in the plate, and incubated at room temperature for 5 minutes to determine the luminescence value.

PARG, sequence (Q86W56 whole entry): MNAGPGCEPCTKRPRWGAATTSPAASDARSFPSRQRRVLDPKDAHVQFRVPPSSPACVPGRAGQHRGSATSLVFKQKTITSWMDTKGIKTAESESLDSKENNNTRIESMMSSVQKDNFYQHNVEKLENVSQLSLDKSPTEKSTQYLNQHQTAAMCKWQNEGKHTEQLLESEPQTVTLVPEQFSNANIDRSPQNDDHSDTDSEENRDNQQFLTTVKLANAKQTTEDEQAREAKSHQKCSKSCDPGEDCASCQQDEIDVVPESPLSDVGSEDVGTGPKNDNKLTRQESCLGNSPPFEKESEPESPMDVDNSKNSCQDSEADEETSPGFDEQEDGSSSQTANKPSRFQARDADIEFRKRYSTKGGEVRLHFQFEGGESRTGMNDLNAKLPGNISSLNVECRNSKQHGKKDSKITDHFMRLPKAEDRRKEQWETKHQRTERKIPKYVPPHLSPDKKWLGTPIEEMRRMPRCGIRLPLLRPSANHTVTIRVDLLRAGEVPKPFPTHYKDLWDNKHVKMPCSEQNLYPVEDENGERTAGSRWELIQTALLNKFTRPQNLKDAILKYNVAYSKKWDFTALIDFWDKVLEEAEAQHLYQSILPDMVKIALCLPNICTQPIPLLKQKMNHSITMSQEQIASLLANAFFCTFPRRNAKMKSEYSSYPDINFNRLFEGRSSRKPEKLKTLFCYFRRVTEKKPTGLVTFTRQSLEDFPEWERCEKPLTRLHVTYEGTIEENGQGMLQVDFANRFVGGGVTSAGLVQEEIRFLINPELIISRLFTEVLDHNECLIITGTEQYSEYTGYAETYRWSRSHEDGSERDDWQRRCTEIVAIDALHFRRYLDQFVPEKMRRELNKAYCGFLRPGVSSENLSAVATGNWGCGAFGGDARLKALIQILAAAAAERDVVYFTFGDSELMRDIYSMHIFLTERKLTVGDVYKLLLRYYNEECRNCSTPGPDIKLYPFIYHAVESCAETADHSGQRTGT

SMILES | IC50 (PARG) | IC50 (HCC1806) | PXR Activation @30 uM (Fold) (PXR) | PXR Activation @30 uM (% Ctrl) (PXR)
COC1(C(=O)N2CCN(c3cc(S(=O)(=O)NC4(C)CC4)cn4c(-c5nnc(C(F)(F)F)s5)ncc34)CC2)CC1 [Example 193, 8-(4-(1-methoxycyclopropane-1-carbonyl)piperazin-1-yl)-N-(1-methylcyclopropyl)-3-(5-(trifluoromethyl)-1,3,4-thiadiazol-2-yl)imidazo[1,5-a]pyridine-6-sulfonamide] | 0.36 nM | 5.76 nM | 2.4 Fold | 15 % Ctrl
CC1(NS(=O)(=O)c2cc(N3CCN(C(=O)[C@@H]4CCN4)CC3)c3cnc(-c4nnc(C(F)(F)F)s4)n3c2)CC1 [Example 284, (S)-8-(4-(azetidine-2-carbonyl)piperazin-1-yl)-N-(1-methylcyclopropyl)-3-(5-(trifluoromethyl)-1,3,4-thiadiazol-2-yl)imidazo[1,5-a]pyridine-6-sulfonamide] | 16.6 nM | 310 nM | 1.1 Fold | 7 % Ctrl
COC1(C(=O)N2CCN(c3cc(S(=O)(=O)NC4(C)CC4)cn4c(-c5nnc(C(F)F)s5)ncc34)CC2)CNC1 [Example 311, 3-(5-(difluoromethyl)-1,3,4-thiadiazol-2-yl)-8-(4-(3-methoxyazetidine-3-carbonyl)piperazin-1-yl)-N-(1-methylcyclopropyl)imidazo[1,5-a]pyridine-6-sulfonamide] | 0.21 nM | 234 nM | 1.1 Fold | 5 % Ctrl
CN1CCC1(C)C(=O)N1CCN(c2cc(S(=O)(=O)NC3(C)CC3)cn3c(-c4nnc(C(F)(F)F)s4)ncc23)CC1 (stereo not drawn) [Example 330, 8-(4-(1,2-dimethylazetidine-2-carbonyl)piperazin-1-yl)-N-(1-methylcyclopropyl)-3-(5-(trifluoromethyl)-1,3,4-thiadiazol-2-yl)imidazo[1,5-a]pyridine-6-sulfonamide] | 6.55 nM | 194 nM | 1.3 Fold | 9 % Ctrl
CC1(NS(=O)(=O)c2cc(N3CCN(c4ccc[nH]c4=O)CC3)c3cnc(-c4nnc(C(F)(F)F)s4)n3c2)CC1 [Example 336, N-(1-methylcyclopropyl)-8-(4-(2-oxo-1,2-dihydropyridin-3-yl)piperazin-1-yl)-3-(5-(trifluoromethyl)-1,3,4-thiadiazol-2-yl)imidazo[1,5-a]pyridine-6-sulfonamide] | 54.1 nM | 1080 nM | 0.3 Fold | 2 % Ctrl

Further compounds by falling IC50 (PARG), results first:

IC50 (PARG) | IC50 (HCC1806) | PXR Activation @30 uM (Fold) (PXR) | PXR Activation @30 uM (% Ctrl) (PXR) | SMILES
20 nM | 246 nM | 1.7 Fold | 10 % Ctrl | CN1CC[C@H]1C(=O)N1CCN(c2cc(S(=O)(=O)NC3(C)CC3)cn3c(-c4nnc(C(F)(F)F)s4)ncc23)CC1 [Example 285, (S)-8-(4-(1-methylazetidine-2-carbonyl)piperazin-1-yl)-N-(1-methylcyclopropyl)-3-(5-(trifluoromethyl)-1,3,4-thiadiazol-2-yl)imidazo[1,5-a]pyridine-6-sulfonamide]
11.5 nM | 700 nM | 1.6 Fold | 12 % Ctrl | N#CC1(NS(=O)(=O)c2cc(N3CCN(C(=O)c4ccncc4)CC3)c3cnc(-c4nnc(C(F)(F)F)s4)n3c2)CC1 [Example 254, N-(1-cyanocyclopropyl)-8-(4-isonicotinoylpiperazin-1-yl)-3-(5-(trifluoromethyl)-1,3,4-thiadiazol-2-yl)imidazo[1,5-a]pyridine-6-sulfonamide]
4.37 nM | 137 nM | 1.6 Fold | 15 % Ctrl | CN1CC[C@@H]1C(=O)N1CCN(c2cc(S(=O)(=O)NC3(C)CC3)cn3c(-c4nnc(C(F)(F)F)s4)ncc23)CC1 [Example 287, (R)-8-(4-(1-methylazetidine-2-carbonyl)piperazin-1-yl)-N-(1-methylcyclopropyl)-3-(5-(trifluoromethyl)-1,3,4-thiadiazol-2-yl)imidazo[1,5-a]pyridine-6-sulfonamide]
4.29 nM | 205 nM | 1.8 Fold | 14 % Ctrl | CC1(NS(=O)(=O)c2cc(N3CCN(C(=O)[C@H]4CCCN4)CC3)c3cnc(-c4nnc(C(F)(F)F)s4)n3c2)CC1 [Example 324, (R)-N-(1-methylcyclopropyl)-8-(4-prolylpiperazin-1-yl)-3-(5-(trifluoromethyl)-1,3,4-thiadiazol-2-yl)imidazo[1,5-a]pyridine-6-sulfonamide]
